Usually EC50 stands for the midpoint of the concentration-response curve. Broadly, the CC50 is the concentration that lowers cell viability or growth by half.

Series [1] relates to genotype A, "Long" strain RSV. As to the kind of experiment: RSV-A assay: CPE protection in HEp-2 cells, ATPlite readout. To be noted: human respiratory syncytial virus, HEp-2, read-out: Human RSV-A (“Long” strain) EC50. It counts as cell-based, human respiratory syncytial virus. The method in brief: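 EC50 derives from ATPlite luminescence after 5-day culture of RSV Long-infected (MOI 0.1) HEp-2 cells, seeded 8,000/well, exposed to duplicate 2-fold compound series. CC50 comes from an identical plate receiving medium instead of virus.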
In general terms: In ATP-based viability assays light output follows the ATP content of the culture.

A further series deals with HEp-2 cells. As to the kind of experiment: Cytotoxicity in parallel to the RSV-A assay (no virus), ATPlite readout. Type of series: cell-based, human. The method in brief: (§1)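 HEp-2 cells at 8,000/well in DMEM with 10% heat-inactivated FBS received 2-fold serial compound dilutions in duplicate and growth media in place of virus. After 5 days cell viability was read as ATP content by ATPlite luminescence to give CC50.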

For series [2], the system named is RSV genotype B, strain 9320. As to the kind of experiment: RSV-B assay: A549 cells infected with RSV-B, qPCR or ATPlite readout. It counts as cell-based. The settings on record: human respiratory syncytial virus, A549, 144 h, read-out: Human RSV-B EC50. The text has this: HEp-2 cells, (originally derived from tumors grown in irradiated-cortisonised weanling rats that had been injected with epidermoid carcinoma tissue from a person's larynx, but later found to be indistinguishable from HeLa cells by PCR DNA analysis), were used for the culturing of genotype B, strain 9320. Flasks were inoculated with RSV-B and viral stocks were collected once cytopathic effect (CPE) was greater than […]. Viral stocks in 25% sucrose media were snap frozen using liquid nitrogen to increase viral stability. Viral stock titers were quantified by tissue culture infectious dose 50% (TCID50) using 8,000 cells per well and 5-fold viral dilutions across a 96-well plate, cultured for 4 days. Viral stock titers were also quantified by a plaque forming unit assay, as described elsewhere.
The assay is run as follows: A549 cells (originally derived through explant culture from a person's carcinomatous lung tissue) are seeded into the inner 60 wells of a 96-well plate at 3,000 cells per well in a volume of 50 μL using A549 growth media (F-12K Media, 1% Penn/Strep, 1% nonessential amino acids, 10% heat-inactivated FBS). 2-fold serial dilutions of control and test compounds are added to the wells in duplicate in a total volume of 25 μL. Viral stock is then added to the wells at a multiplicity of infection (MOI) of 0.5 in a volume of 25 μL, bringing the total volume of each well to 100 μL. The MOI is calculated using the PFU/mL, or TCID50 if unavailable. Each 96-well plate has a control column of 6 wells with cells and virus but no compound (negative control, max CPE), a column with cells but no compound or virus (positive control, minimum CPE), and a column with no cells or virus or compound (background plate/reagent control). The control wells with cells but no virus are given an additional 25 μL of growth media containing an equal quantity of sucrose as those wells receiving the viral stock in order to keep consistent in media and volume conditions. The outer wells of the plate are filled with 125 μL of moat media (DMEM, 1% Penn/Strep) to act as a thermal and evaporative moat around the test wells. 6 days post infection, the plates are read using qPCR or ATP lite (50 μL added per well), which quantifies the amount of ATP (a measure of cell health) present in each well. Assay plates treated with APTlite are read using the Envision luminometer. […] EC50 ranges are as follows: A <0.4 μM; B 0.4-0.8 μM; C >0.8 μM.
On the technique in general: Real-time PCR tracks product formation cycle by cycle.

The nature of series [3]: Cytotoxicity in parallel to the RSV-A assay (no virus), ATPlite readout. It counts as cell-based, human. The settings on record: human, HEp-2 cells (uninfected). The method in brief: as §1

For the molecule `O=C1Nc2ccccc2C(c2ccccc2)=N[C@@H]1Nc1nnc(-c2ccc(F)cc2)o1` [Example 7a], the figures for the EC50 in series [1] and in series [2] were 400 to 800 nM and over 800 nM, respectively. In addition, the CC50 with HEp-2 cells was over 50000 nM.
Take `O=C1Nc2ccccc2C(c2ccccc2)=N[C@@H]1Nc1nnc(-c2ncc(C(F)(F)F)cc2N2CCC(F)CC2)o1` [Example 269]: the EC50 in series [1] is over 800 nM; in series [2], 400 to 800 nM.
The like results for `O=C1Nc2ccccc2C(c2ccccc2)=N[C@@H]1Nc1nnc(-c2nc(C3CCC3)sc2N2CCOCC2)o1` [Example 387] were, in that order, under 400 nM and under 400 nM.
For `Cc1ccc(-c2nnc(N[C@H]3N=C(c4ccccc4)c4ccccc4NC3=O)o2)c(N2CCOCC2)n1` [Example 252], the EC50 in series [1] and in series [2] was under 400 nM throughout.
In the case of `COCCOc1cc(C#N)ccc1-c1nnc(N[C@H]2N=C(c3ccccc3)c3ccccc3NC2=O)o1` [Example 300], the EC50 in series [1] and in series [2] was under 400 nM throughout.
For `O=C1Nc2ccccc2C(c2ccccc2)=NC1Nc1nnc(-c2ccc(F)cc2N2CCOCC2)o1` (stereo not drawn) [Example 127], the EC50 in series [1] and in series [2] was under 400 nM in each case.
As to `CCc1nc(-c2nnc(N[C@H]3N=C(c4ccccc4)c4ccccc4NC3=O)o2)c(N2CCOCC2)s1` [Example 385], the EC50 in series [1] and in series [2] was under 400 nM in each case.
For `O=C1Nc2ccccc2C(c2ccccc2)=N[C@@H]1Nc1nnc(-c2ncc(C(F)(F)F)cc2N2C3CCC2COC3)o1` [Example 250], the EC50 in series [1] and in series [2] was under 400 nM throughout.
With `O=C1Nc2ccccc2C(c2ccccc2)=N[C@@H]1Nc1nnc(-c2ncc(F)cc2N2CCOCC2)o1` [Example 136, (S)-3-((5-(5-fluoro-3-morpholinopyridin-2-yl)-1,3,4-oxadiazol-2-yl)amino)-5-phenyl-1,3-dihydro-2H-benzo[e][1,4]diazepin-2-one], the EC50 in series [1] and in series [2] was under 400 nM in each case.
With `Cc1ccc(-c2nnc(NC3N=C(c4ccccc4)c4ccccc4NC3=O)o2)c(N2CCOCC2)n1` (stereo not drawn) [Example 144], the EC50 in series [1] and in series [2] was under 400 nM in each case.
Turning to `O=C1Nc2c(F)cccc2C(c2ccccc2)=N[C@@H]1Nc1nnc(-c2ccccc2N2CCOCC2)o1` [Example 355a], the EC50 in series [1] and in series [2] was under 400 nM each time.
Turning to `O=C1Nc2ccccc2C(c2ccccc2)=N[C@@H]1Nc1nnc(-c2ncc(C(F)(F)F)cc2N2CC3CCC(C2)O3)o1` [Example 251], the EC50 in series [1] and in series [2] was under 400 nM in each case.
`O=C1Nc2ccccc2C(c2ccccc2)=NC1Nc1nnc(-c2ccc3ncsc3c2)o1` (stereo not drawn) [Example 42]: in series [1], the EC50 is 400 to 800 nM. The molecule further yielded a CC50 at 5 days in series [3] of over 50000 nM.
On to `O=C1Nc2ccccc2C(c2ccccc2)=N[C@@H]1Nc1nnc(-c2nc(C(F)(F)F)sc2N2CCOCC2)o1` [Example 339], for which the EC50 in series [1] and in series [2] was under 400 nM throughout.
As for `C[C@@H]1COCCN1c1ncccc1-c1nnc(NC2N=C(c3ccccc3)c3ccccc3NC2=O)o1` (stereo partly drawn) [Example 245], the EC50 was under 400 nM in series [1] and 400 to 800 nM in series [2].
The like results for `Cc1nc(-c2nnc(N[C@H]3N=C(c4ccccc4)c4ccccc4NC3=O)o2)c(N2CCOCC2)s1` [Example 272] were, in that order, under 400 nM and under 400 nM.

Values taken from US12268694B2, “Combination pharmaceutical agents as RSV inhibitors” (Enanta Pharmaceuticals, Inc., priority 2017, dated 2025).
